Assays:
[1] = test system: oophoroma cell line (A2780); assay: Test for cell growth inhibitory activity against A2780 (epithelial ovarian cancer); format: cell-based; conditions: cultured 72 hr, sulforhodamine B
Procedure: An experiment was performed according to the method described in Ahmed SA et al., 1994. Journal of Immunological Methods 170: 211-224, or Boyed M R et al., 1989.
(§1) A cell suspension of oophoroma cell line (A2780) prepared to 2 to 3×10^3/well was added to a well microplate, a given amount of a test substance (0, 1.25, 2.5, 5, 10, 12.5, 20, 25, 50, 100 μM) was added to the culture medium, and the mixture was cultured for 72 hr. Thereafter, 0.4% sulforhodamine B was added to each well, and the absorbance at 570 nm was measured by a microplate reader. The cell growth inhibition ratio was calculated from the above-mentioned formula, and IC50 value was determined from the data. The same test was performed using HOSE cell (normal ovary cell line) as a comparison target instead of A2780 cell, and IC50 value was determined.

[2] = test system: HOSE cell (normal ovary cell line); assay: Cell growth inhibitory activity against HOSE cell (comparison target); format: cell-based; conditions: cultured 72 hr, sulforhodamine B
Procedure: as §1

Row | SMILES | IC50 [1] [µM] | IC50 [2] [µM]
1 | CC(C#N)(COc1ccc(C#Cc2ccccc2)cc1)NC(=O)c1ccc(C(F)(F)F)cc1 (racemic) [1-25] | 4.53 | 15.3
2 | CC(C)(C)C#Cc1ccc(OCC(C)(C#N)NC(=O)Cc2ccc(C(F)(F)F)cc2)cc1 (stereo not drawn) [2-120] | 6.2 | 10.4
3 | CC(C)C(C#N)(COc1ccc(Cl)cc1)NC(=O)Cc1cccc(Cl)c1 (stereo not drawn) [2-27] | 8.81 | 15.8
4 | Cn1nc(C(F)(F)F)cc1C(=O)NC(C)(C#N)COc1ccc(Cl)cc1 (racemic) [1-39] | 6.97 | 
5 | CCCCCCCCOCC(C)(C#N)NC(=O)Cc1ccc(C(F)(F)F)cc1 (stereo not drawn) [4-1] | 7.22 | 
6 | CC(C)(C)C(C#N)(COc1ccc(C(F)(F)F)cc1)NC(=O)c1ccc(Cl)cc1Cl (racemic) [1-56] | 11.4 | 
7 | CC(C#N)(COc1ccc(C(F)(F)F)cc1)NC(=O)Cc1ccc(C(F)(F)C(F)(F)C(F)(F)F)cc1 (stereo not drawn) [2-109] | 3.77 | 
8 | CC(C#N)(COc1ccc(Cl)cc1)NC(=O)Cc1ccc(SC(F)(F)C(F)(F)C(F)(F)F)cc1 (stereo not drawn) [2-114] | 3.53 | 19.9
9 | CC(C#N)(COc1ccc(C(F)(F)F)cc1)NC(=O)c1cccc(OC(F)(F)F)c1 (racemic) [1-29] | 13.3 | 
10 | CC(C#N)(COc1ccc(C(F)(F)F)cc1)NC(=O)c1ccc(C(F)(F)C(F)(F)F)cc1 (racemic) [1-10] | 10.3 | 49.4

Source: patent US10292960B2, “Anticancer agent comprising aminoacetonitrile compound as active ingredient” (PITNEY PHARMACEUTICALS PTY LIMITED, priority 2013, dated 2019)
